For one compound, mortality results are on record in patent publication US8969332B2, “Aryloxy dihalopropenyl ether compounds and uses thereof” (Sinochem Corporation, priority 2011, dated 2015).

The test relates to beet armyworm. As to the kind of experiment: Insecticidal activity against beet armyworm (24 well-plate artificial diet emulsion method). The test is classed as in vivo. The note with it: Spodoptera exigua, 72 h, read-out: Mortality of beet armyworm (%). Here is the method: Compounds were dissolved in mixed solvent (acetone:methanol=1:1), and diluted to required concentration with water containing 0.1% of tweed 80.
24 well-plate artificial diet emulsion method: artificial food was added to each well of the 24 well-plate, after the artificial food was cooled, the prepared solution were added into the 24 well-plate according to the experimental design by order of chemical concentrations from low to high, by gently shaking the even emulsion film can be formed on the surface of the diet. 24 neat and healthy larvae were put into the 24 well-plate (one larvae each well) after the film was air-dried and 3 replicates were set for each treatment. Then the insects were maintained in observation room (25° C., 60˜70% R.H.). Scores were conducted and mortalities were calculated after 72 h.

What is called mortality is the share of the test organisms that died.

As for `FC(F)(F)c1ccc(Oc2ccc(OCCCOc3c(Cl)cc(OCC=C(Cl)Cl)cc3Cl)cc2)nc1` [Compound 1], the mortality at 2.5 µg/mL (2.5 mg/L) was 47.8%. Besides, the mortality at 10 µg/mL (10 mg/L) turned out to be 100%.
